These results are taken from patent US12337037B2, “Taxol conjugate compounds, pharmaceutical compositions comprising the same, and methods for their use” (N1 Life, Inc, priority 2021, dated 2025).

Entries after “also recorded” stand apart in the source; their conditions may differ. Where two headings read alike, the source gives them in different places. Some results are limits rather than exact numbers.

Series [1] has as its system Human ovarian cancer (SKOV-3-GFP) cells. Briefly: Efficacy in metastatic ovarian cancer model (peritoneal disseminated metastasis). It counts as in vivo, Female athymic nude mice. To be noted: for acute toxic effect / animal death: ovarian cancer model; for mean tumor fluorescence area as % of the Vehicle (PBS) group / Average tumor area on day 0 (MEAN ± SD) / Average tumor area on day 21 (MEAN ± SD) / Mean tumor mass (g) (MEAN ± SD) / Average tumor inhibitory rate (%) (MEAN ± SD): Taxol 10 mg/kg; for mean tumor fluorescence area as % of the Vehicle (PBS) group: Compound 3 / Compound 5 9.6 mg/kg IP Q5D; for Average tumor area on day 0 (MEAN ± SD): baseline fluorescence area; for Average tumor area on day 21 (MEAN ± SD): fluorescence area; for Mean tumor mass (g) (MEAN ± SD): conjugate 9.6 mg/kg IP Q5D; for Average tumor inhibitory rate (%) (MEAN ± SD): from final tumor weights. As for the experimental part: The tumor samples were then stored in formalin solution.
Method: The method was the same as described for Biological Example 4.
Endpoint tumor load of each group: At Day 21 after administration, the tumor load of each group was calculated by dissecting and weighing the tumor in the abdominal cavity. The vehicle was the control.
Tumor inhibitory rate (IR): Tumor IR was calculated based on the final average tumor weights according to the formula: IR (%)=(1-treatment(t)/control(c))×100

The subject of series [2] is liver cancer Hep 3B cells. Nature of the series: CCK-8 cytotoxicity / anti-proliferation assay, Hep 3B. Type of series: cell-based. Particulars: for Anti-proliferation %: 4 μM. As for the experimental part:
(§1) Cytotoxicity Assay—CCK8 Cancer Cells
The CCK-8 assay was applied to study the cytotoxicity of the peptide drug conjugates and their inhibition of proliferation of cancer cells. First, 2˜10×10^3 cells (depending on the rate of growth of different cell lines) with 100 μL, DMEM media were seeded in normal culture medium into each well of a 96-well plate. The cells were then cultured overnight at 37° C. with 4˜5% CO2. Different doses (4000, 2000, 1000, 500 nM for Hep3B, Hep G2 and MCF7/MBA-MD-231; 1000, 333.3, 100.0, 33.33, 3.333, 1.000, 0.333 nM for MCF7/ADR, 22Rv1, CNE1, HCT116, DLD-1) of Taxol and peptide drugs were added. After 48˜72 hour incubation, CCK-8 solution was added to each well. The cells were then incubated at 37° C. for 4 hours. The optical density was measured at 450/650 nm using a multiscan spectrometer (PerkinElmer's EnSpire Multilabel Plate Reader). The optical density is linearly proportional to the number of living cells in the sample: […]

Series [3] concerns HCT116 human colorectal carcinoma cell. Briefly: cells. As for the experimental part:
as §1
(§2) The CCK-8 assay was applied to study the cytotoxicity of the peptide drug conjugates and their inhibition of proliferation of cancer cells. First, 2˜10×10^3 cells (depending on the rate of growth of different cell lines) with 100 μL, DMEM media were seeded in normal culture medium into each well of a 96-well plate. The cells were then cultured overnight at 37° C. with 4˜5% CO2. Different doses (4000, 2000, 1000, 500 nM for Hep3B, Hep G2 and MCF7/MBA-MD-231; 1000, 333.3, 100.0, 33.33, 3.333, 1.000, 0.333 nM for MCF7/ADR, 22Rv1, CNE1, HCT116, DLD-1) of Taxol and peptide drugs were added. After 48˜72 hour incubation, CCK-8 solution was added to each well. The cells were then incubated at 37° C. for 4 hours. The optical density was measured at 450/650 nm using a multiscan spectrometer (PerkinElmer's EnSpire Multilabel Plate Reader). The optical density is linearly proportional to the number of living cells in the sample:
(§3) The plate layout for MCF7/ADR, 22Rv1, CNE1, HCT116, DLD-1 cell lines is shown below.

The subject of series [4] is MCF7/ADR multidrug-resistant breast cancer cell. Nature of the series: cells. To be noted: read-out: IC50 nM. As for the experimental part: as §1, §2, §3
In series [5] the test system is DLD-1 colorectal adenocarcinoma cell line. Briefly: cells. As for the experimental part: as §1, §2, §3
Series [6] relates to CNE1 nasopharyngeal carcinoma cell line. Briefly: cells. To be noted: read-out: IC50 nM. The procedure:
as §1, §2, §3

The subject of series [7] is 22Rv1 human prostate carcinoma epithelial cell line. Briefly: cells. The procedure:
as §1, §2, §3

Where [8] appears, read: Table 8B (Compound 5 set), Compd 5 9.6 mg/kg IP Q5D.
The mark [9] stands for this setting: Table 9A (titled Compound 3 set), Day 21.
Where [10] appears, read: Table 10B (Compound 5 set), Day 21, Compd 5 9.6 mg/kg IP Q5D.
The mark [11] stands for this setting: read-out: IC50 nM, HCT116 cells.
Setting [12] is: Table 8A (Compound 3 set), Compd 3 9.6 mg/kg IP Q5D.
Where [13] appears, read: Table 9B (titled Compound 5 set), Day 21.
[14] abbreviates: Table 10A (Compound 3 set), Day 21, Compd 3 9.6 mg/kg IP Q5D.

In the case of `CC(=O)N[C@H](CSSCCCC(=O)O[C@@H](C(=O)O[C@H]1C[C@@]2(O)[C@@H](OC(=O)c3ccccc3)[C@@H]3[C@]4(OC(C)=O)CO[C@@H]4C[C@H](O)[C@@]3(C)C(=O)[C@H](OC(C)=O)C(=C1C)C2(C)C)[C@@H](NC(=O)c1ccccc1)c1ccccc1)C(=O)N[C@H](CCCNC(=N)N)C(=O)N[C@H](CCCNC(=N)N)C(=O)N[C@H](CCCNC(=N)N)C(=O)N[C@H](CCCNC(=N)N)C(=O)N[C@H](CCCNC(=N)N)C(=O)N[C@H](CCCNC(=N)N)C(=O)N[C@H](CCCNC(=N)N)C(=O)N[C@H](CCCNC(=N)N)C(N)=O` [Compound 5, Ac-D-Cysteine (paclitaxel-4-mercaptobutanoate)-D-Arginine8-NH2], the “acute toxic effect / animal death” value in series [1] (9.6 mg/kg IP Q5D) is “caused animal death; also recorded: one animal died at Day 18”. In addition, in series [1] (9.6 mg/kg vs Taxol 10 mg/kg), the “tumor inhibitory effect, less effective than Taxol” value is given as “about 10%”. Moreover, the “mean tumor fluorescence area as % of the Vehicle (PBS) group” value (“mean tumor fluorescence area as %” for short) in series [1] (Day 21) came to 10%. Moreover, the “Average tumor area on day 0 (MEAN ± SD)” value in series [1] (setting [8]) stood at 24.9 ± 6.6. Also, the “Average tumor area on day 21 (MEAN ± SD)” value in series [1] (setting [8]) amounted to 28.7 ± 19.8. Also, the “Mean tumor mass (g) (MEAN ± SD)” value in series [1] (setting [9]) is recorded as 0.178 ± 0.143 g. Also, the “Average tumor inhibitory rate (%) (MEAN ± SD)” value is listed as 79±11% in series [1] (setting [10]) and 79 ± 11% in series [1] (Table 10B (Compound 5 set), Day 21, Compd 5 9.6 mg/kg IP Q5D, listed as Compd 5). The same compound gave an Anti-proliferation % in series [2] of 23.2%. In addition, the IC50 – broadly, the concentration that gives 50% inhibition – in series [3] (setting [11]) was 23.5 nM; in series [4] (MCF7/ADR cells) it was greater than 1000 nM; in series [5] (read-out: IC50 nM, DLD-1 cells) it was 110 nM; in series [6] (CNE1 cells), 19.3 nM; in series [7] (read-out: IC50 nM, 22Rv1 cells), 29.3 nM.

For `CC(=O)N[C@@H](CSSCCCC(=O)OC(C(=O)O[C@H]1C[C@@]2(O)[C@@H](OC(=O)c3ccccc3)[C@@H]3[C@]4(OC(C)=O)CO[C@@H]4C[C@H](O)[C@@]3(C)C(=O)[C@H](OC(C)=O)C(=C1C)C2(C)C)[C@@H](NC(=O)c1ccccc1)c1ccccc1)C(=O)N[C@H](CCCNC(=N)N)C(=O)N[C@H](CCCNC(=N)N)C(=O)N[C@H](CCCNC(=N)N)C(=O)N[C@H](CCCNC(=N)N)C(=O)N[C@H](CCCNC(=N)N)C(=O)N[C@H](CCCNC(=N)N)C(=O)N[C@H](CCCNC(=N)N)C(=O)N[C@H](CCCNC(=N)N)C(N)=O` (stereo partly drawn) [Compound 3, Ac-L-Cysteine (paclitaxel-4-mercaptobutanoate)-D-Arginine8-NH2], the “tumor inhibition effect, better than Compound 5” value in series [1] (9.6 mg/kg) is “at least 10%”. Moreover, the “acute toxic effect / animal death” value in series [1] (9.6 mg/kg IP Q5D) is given as “no obvious acute toxic effect”. Besides, in series [1] (Day 21, 9.6 mg/kg IP Q5D), the “average tumor fluorescence area as % of the Taxol (10 mg/kg) group” value is reported as “about 100%”. Moreover, in series [1] (Day 21, 9.6 mg/kg IP Q5D), the “average tumor weight as % of the Vehicle group” value is listed as “about 10%”. Also, the “mean tumor fluorescence area as %” value in series [1] (Day 21) is reported as “about 20%”. Besides, in series [1] (setting [12]), the “Average tumor area on day 0 (MEAN ± SD)” value is recorded as 18.6 ± 5.3. In addition, in series [1] (setting [12]), the “Average tumor area on day 21 (MEAN ± SD)” value stood at 30.9 ± 24.2. Also, the “Mean tumor mass (g) (MEAN ± SD)” value in series [1] (setting [13]) amounted to 0.2555 ± 0.1388 g. The “Average tumor inhibitory rate (%) (MEAN ± SD)” value worked out at 90±8% in series [1] (setting [14]) and 90 ± 8% in series [1] (Table 10A (Compound 3 set), Day 21, Compd 3 9.6 mg/kg IP Q5D, listed as Compd 3). Moreover, the Anti-proliferation % in series [2] was 36.0%. Further, in series [2] (all tested concentrations (500-4000 nM)), the “cancer cell inhibition compared to Compound 5 (FIG. 2A)” value is “substantially superior to cancer cell inhibition compared to Compound 5 at all tested concentrations”. In addition, the IC50 in series [3] (setting [11]) was 21.5 nM; in series [4] (MCF7/ADR cells) it was 438 nM; in series [5] (read-out: IC50 nM, DLD-1 cells), 62 nM; in series [6] (CNE1 cells) it was 15.9 nM; in series [7] (read-out: IC50 nM, 22Rv1 cells), 21.6 nM.

In the case of `CC(=O)O[C@H]1C(=O)[C@@]2(C)[C@H]([C@H](OC(=O)c3ccccc3)[C@]3(O)C[C@H](OC(=O)[C@H](O)[C@@H](NC(=O)c4ccccc4)c4ccccc4)C(C)=C1C3(C)C)[C@]1(OC(C)=O)CO[C@@H]1C[C@@H]2O` [Taxol, paclitaxel], in series [1] (Day 21), the “mean tumor fluorescence area as %” value was 8-16%. The results for the “Average tumor area on day 0 (MEAN ± SD)” value in series [1] (setting [12]) and in series [1] (setting [8]) were 18.4 ± 3.3 and 22.8 ± 4.1, respectively. For the same compound, the “Average tumor area on day 21 (MEAN ± SD)” value in series [1] (setting [12]) was found to be 24.8 ± 27.1; in series [1] (setting [8]), 22.7 ± 15.5. Besides, the “Mean tumor mass (g) (MEAN ± SD)” value in series [1] (setting [9]) is on record as 0.174 ± 0.141 g; in series [1] (setting [13]), 0.1970 ± 0.1248 g. The “Average tumor inhibitory rate (%) (MEAN ± SD)” value is reported as 90 ± 8% in series [1] (setting [14]) and 84 ± 10% in series [1] (setting [10]). Also, the Anti-proliferation % in series [2] was found to be 11.5%. Besides, the IC50 in series [3] (Homo sapiens, HCT-116, read-out: IC50 nM) was 2.79 nM; in series [4] (Homo sapiens, NCI/ADR-RES), greater than 1000 nM; in series [5] (Homo sapiens, DLD-1, read-out: IC50 nM), 9.98 nM; in series [6] it was 1.12 nM; in series [7] (Homo sapiens, 22Rv1, read-out: IC50 nM), 4.95 nM.
